How the values were obtained:
Format in all cases: in vivo
[1] = system: Alopecurus myosuroides (ALOMY); assay: B1 Pre-emergence herbicidal activity; parameters: key: 5=total damage to plant; 0=no damage to plant; conditions: pre-emergence application, rate 1000 g/ha, evaluated after 13 days
Description: (§1) Seeds of a variety of test species were sown in standard soil in pots: Triticum aestivium (TRZAW), Avena fatua (AVEFA), Alopecurus myosuroides (ALOMY), Echinochloa crus-galli (ECHCG), Lolium perenne (LOLPE), Zea Mays (ZEAMX), Abutilon theophrasti (ABUTH), Amaranthus retroflexus (AMARE) and Setaria fabenr (SETFA). After cultivation for one day (pre-emergence) under controlled conditions in a glasshouse (at 24/16° C., day/night; 14 hours light; 65% humidity), the plants were sprayed with an aqueous spray solution derived from the formulation of the technical active ingredient in acetone I water (50:50) solution containing 0.5% Tween 20 (polyoxyethelyene sorbitan monolaurate, CAS RN 9005-64-5). The test plants were then grown in a glasshouse under controlled conditions (at 24/16° C., day/night; 14 hours light; 65% humidity) and watered twice daily. After 13 days, the test was evaluated (5=total damage to plant; 0=no damage to plant).

[2] = system: Avena fatua (AVEFA); assay: B1 Pre-emergence herbicidal activity; parameters: key: 5=total damage to plant; 0=no damage to plant; conditions: pre-emergence application, rate 1000 g/ha, evaluated after 13 days
Description: as §1

[3] = system: Triticum aestivium (TRZAW); assay: B1 Pre-emergence herbicidal activity; parameters: key: 5=total damage to plant; 0=no damage to plant; conditions: pre-emergence application, rate 1000 g/ha, evaluated after 13 days
Description: as §1

[4] = system: Echinochloa crus-galli (ECHCG); assay: B1 Pre-emergence herbicidal activity; parameters: key to Pre-emergence herbicidal activity, ECHCG (damage score 0-5): 5=total damage to plant; 0=no damage to plant; conditions: pre-emergence application, rate 1000 g/ha, evaluated after 13 days
Description: as §1

[5] = system: Lolium perenne (LOLPE); assay: B1 Pre-emergence herbicidal activity; parameters: key to Pre-emergence herbicidal activity, LOLPE (damage score 0-5): 5=total damage to plant; 0=no damage to plant; conditions: pre-emergence application, rate 1000 g/ha, evaluated after 13 days
Description: as §1

[6] = system: Setaria fabenr (SETFA); assay: B1 Pre-emergence herbicidal activity; parameters: key to Pre-emergence herbicidal activity, SETFA (damage score 0-5): 5=total damage to plant; 0=no damage to plant; conditions: pre-emergence application, rate 1000 g/ha, evaluated after 13 days
Description: as §1

[7] = system: Echinochloa crus-galli (ECHCG); assay: B2 Post-emergence herbicidal activity; conditions: post-emergence application, rate 1000 g/ha, evaluated after 13 days
Description: (§2) Seeds of a variety of test species were sown in standard soil in pots: Triticum aestivium (TRZAW), Avena fatua (AVEFA), Alopecurus myosuroides (ALOMY), Echinochloa crus-galli (ECHCG), Lolium perenne (LOLPE), Zea Mays (ZEAMX), Abutilon theophrasti (ABUTH), Amaranthus retroflexus (AMARE) and Setaria fabenri (SETFA). After 8 days cultivation (post-emergence) under controlled conditions in a glasshouse (at 24/16° C., day/night; 14 hours light; 65% humidity), the plants were sprayed with an aqueous spray solution derived from the formulation of the technical active ingredient in acetone I water (50:50) solution containing 0.5% Tween 20 (polyoxyethelyene sorbitan monolaurate, CAS RN 9005-64-5). The test plants were then grown in a glasshouse under controlled conditions (at 24/16° C., day/night; 14 hours light; 65% humidity) and watered twice daily. After 13 days, the test was evaluated (5=total damage to plant; 0=no damage to plant).

[8] = system: Alopecurus myosuroides (ALOMY); assay: B2 Post-emergence herbicidal activity; parameters: key: 5=total damage to plant; 0=no damage to plant; conditions: post-emergence application, rate 1000 g/ha, evaluated after 13 days
Description: as §2

[9] = system: Setaria fabenri (SETFA); assay: B2 Post-emergence herbicidal activity; parameters: key: 5=total damage to plant; 0=no damage to plant; conditions: post-emergence application, rate 1000 g/ha, evaluated after 13 days
Description: as §2

[10] = system: Triticum aestivium (TRZAW); assay: B2 Post-emergence herbicidal activity; parameters: key: 5=total damage to plant; 0=no damage to plant; conditions: post-emergence application, rate 1000 g/ha, evaluated after 13 days
Description: as §2

Row | SMILES | Pre-emergence herbicidal activity, ALOMY (damage score 0-5) [1] | Pre-emergence herbicidal activity, AVEFA (damage score 0-5) [2] | Pre-emergence herbicidal activity, TRAZW (damage score 0-5) [3] | Pre-emergence herbicidal activity, ECHCG (damage score 0-5) [4] | Pre-emergence herbicidal activity, LOLPE (damage score 0-5) [5] | Pre-emergence herbicidal activity, SETFA (damage score 0-5) [6] | Post-emergence herbicidal activity, ECHCG (damage score 0-5) [7] | Post-emergence herbicidal activity, ALOMY (damage score 0-5) [8] | Post-emergence herbicidal activity, SETFA (damage score 0-5) [9] | Post-emergence herbicidal activity, TRAZW (damage score 0-5) [10]
1 | CC(C)CN(C(=O)C(C)C)c1ccc(-c2cncc(F)c2)nc1C(F)(F)F [Compound C86] | 0 | 0 | 0 | 0 | 0 | 1 | 1 | 0 | 1 | 0
2 | CCN(CC)CCCN(C(=O)c1ccccc1)c1ccc(-c2cncc(F)c2)nc1C(F)(F)F [Compound C74] | 1 | 0 | 0 | 1 | 1 | 3 | 2 | 0 | 3 | 0
3 | CCC(=O)N(CC1CC1)c1ccc(-c2cncc(F)c2)nc1C(F)(F)F [Compound C108] | 0 | 1 | 0 | 2 | 1 | 5 | 3 | 0 | 4 | 0
4 | CCC(=O)N(CC=C(C)C)c1ccc(-c2cncc(F)c2)nc1C(F)(F)F [Compound C73] | 0 | 2 | 0 | 4 | 0 | 5 | 4 | 0 | 5 | 0
5 | CCC(=O)N(CC(=O)N(C)C)c1ccc(-c2cncc(F)c2)nc1C(F)(F)F [Compound C71] | 0 | 1 | 1 | 4 | 1 | 5 | 4 | 0 | 5 | 0
6 | COCC(=O)N(Cc1ccc(Cl)cc1)c1ccc(-c2cncc(F)c2)nc1C(F)(F)F [Compound C82] | 0 | 0 | 0 | 1 | 0 | 1 | 1 | 0 | 2 | 0
7 | CCC(=O)N(CC(C)C)c1ccc(-c2cncc(F)c2)nc1C(F)(F)F [Compound C97] | 0 | 0 | 0 | 1 | 0 | 3 | 2 | 0 | 3 | 0
8 | COCC(=O)N(CC=C(C)C)c1ccc(-c2cncc(F)c2)nc1C(F)(F)F [Compound C106] | 0 | 2 | 0 | 3 | 1 | 4 | 4 | 0 | 5 | 0
9 | CCC(=O)N(CCOC)c1ccc(-c2cncc(F)c2)nc1C(F)(F)F [Compound C96] | 1 | 1 | 0 | 3 | 0 | 5 | 3 | 0 | 4 | 0
10 | CCC(=O)N(CCSC)c1ccc(-c2cncc(F)c2)nc1C(F)(F)F [Compound C98] | 0 | 0 | 0 | 1 | 1 | 3 | 1 | 0 | 0 | 0
11 | CCC(=O)N(c1ccc(-c2cncc(F)c2)nc1C(F)(F)F)C(C)C [Compound C100] | 0 | 1 | 0 | 3 | 1 | 5 | 4 | 0 | 5 | 0
12 | O=C(c1ccccc1)N(Cc1ccc(Cl)cc1)c1ccc(-c2cncc(F)c2)nc1C(F)(F)F [Compound C77] | 0 | 0 | 0 | 0 | 0 | 1 | 1 | 0 | 2 | 0
13 | CC(C)C(=O)N(CC(=O)N(C)C)c1ccc(-c2cncc(F)c2)nc1C(F)(F)F [Compound C107] | 0 | 1 | 0 | 3 | 0 | 5 | 4 | 0 | 5 | 0

— patent US11230538B2, “Herbicides” (SYNGENTA PARTICIPATIONS AG, priority 2016, dated 2022)
